Reference: patent US20230043394A1, “METHODS FOR DETECTION OF PATHOGENIC ANTIPHOSPHOLIPID ANTIBODIES AND FOR IDENTIFICATION OF INHIBITORS” (UNIVERSITÄTSMEDIZIN DER JOHANNES GUTENBERG-UNIVERSITÄT MAINZ, priority 2019, published 2023)

Experiments:
MM1 cells = assay: aPL signaling and internalization in MM1 cells with sphingomyelinase inhibitor; assay type: cell-based, human
Description: (A) aPL-mediated TF activation, PS exposure measured by annexin 5 staining, ROS production and TNFα induction as well as (B) aPL internalization in MM1 cells was blocked by sphingomyelinase inhibitor desipramine. Bar=5 μm. (C) aPL-induced ASM activity in MM1 cells is blocked by inhibitors of FXa, thrombin, and PAR1 cleavage. (D) Live cell imaging of surface ASM exposure in MM1 cells after 30 minutes of stimulation with Fab′2 aPL HLSB. Bar=5 μm. (E) ASM activity in unstimulated cell lysates after addition of sEPCR-LBPA (2.504) is blocked by αEPCR 1682. For all ASM activity assays: mean±SD, n=3. * p<0.0003; one-way ANOVA, Dunnett multiple-comparison test. […] (G, H) Thrombosis induction by dual reactive aPL HL7G in the indicated mouse strains or WT mice in presence of indicated αEPCR. (F-H) Quantification of thrombus size 3 hours after aPL injection; median, interquartile range, and range; n=6-11; * p <0.004; one-way ANOVA, Dunnett multiple-comparison test compared to αEPCR 1650. (I, J) Thrombosis induction by aPL HLSB (I) or IgG isolated from age-matched 16 weeks old lupus-prone MRL/lpr and MRL control mice (J) in the indicated mouse strains. Quantification of thrombus size 3 hours after aPL injection; median, interquartile range, and range; (I) n=6-10; * p=0.001; unpaired t-test. (J) n=5; * p=0.0025; two-way ANOVA, Sidak's multiple comparisons test. […]

EPCR^C/S pDC = assay: Mouse pDC and B cell co-culture with R848 and aPL HL5B, anti-cardiolipin titers; assay type: cell-based; settings: co-cultures with EPCR^C/S pDC
Description: (A) Gbp2 mRNA induction after 1 hour stimulation with HL5B, HL7G, or LPS (100 ng/ml) in EPCR^C/S or WT monocytes with or without addition of LBPA. (B) WT monocytes were stimulated for 1 hour with IgG isolated from MRL/lpr lupus-prone or control MRL mice in the presence of the indicated antibodies to EPCR. (C) Human monocyte-derived DC were co-cultured with B cells in the presence of TLR7/8 agonist R848 and aPL HL5B with the indicated antibodies to human EPCR. Anti-cardiolipin titers were determined after 10 days. (D-F) Co-cultures of isolated spleen plasmacytoid dendritic cells (pDC) and B cells from the indicated mouse strains were co-cultured with Tlr7 agonist R848 and aPL HL5B for 10 days, followed by determination of anti-cardiolipin titers. IFNR^−/−, type I interferon receptor deficient mice.
Supporting this conclusion, anti-cardiolipin antibody production was absent when mouse pDC, but not B cells, were isolated from EPCR^C/S mice (FIG. 9D). Addition of LBPA or interferon a restored the expansion of anti-cardiolipin producing B cells in co-cultures with aPL signaling-deficient EPCR^C/S pDC (FIG. 9D). In contrast, cells deficient in LRP8, the receptor for β2GPI, produced anti-cardiolipin antibodies normally in response to co-stimulation of aPL and Tlr7 agonist (FIG. 9E).

EPCR^C/S monocytes = assay: Lipid supplementation and aPL signalling in EPCR^C/S monocytes; assay type: cell-based, mouse; settings: 10 μM
Source text: (A) Effect of aPL HL5B, aPL HL7G, and αEPCR antibodies on EPCR-dependent aPC generation on murine microvascular endothelial cells. (B) Effect of anti-mouse EPCR antibodies 1682 and 1650 on Tnfα mRNA induction by aPL HL5B and HL7G; mean±SD, n=6. * p<0.0001; one-way ANOVA, Dunnett multiple-comparison. (C) Effect of αEPCR on aPL HL5B and HL7G internalization in CD115+ splenocytes. Bar=5 μm. (D) Flow cytometry detection of FXa and EPCR on CD115+ spleen monocytes isolated from indicated mouse strains. (E) Effect of pre-treatment with 10 μM LBPA for 10 min on surface binding of αEPCR 1682 and αLBPA 6C4 on indicated monocytes; mean±SD, n=6. * p<0.003; multiple t-tests. (F) Competition of αEPCR 1650 and 1682 with binding of FITC-labelled anti-LBPA antibody 6C4 to mouse CD115+ splenocytes. (G) Competition of αLBPA 6C4 with binding of αEPCR 1682 to mouse monocytes. (H) Effect of LBPA, cardiolipin (CL), and phosphatidylserine (PS) (10 μM) on aPL HLSB signalling in EPCR^C/S monocytes. Induction of TNF after 3 hours is shown; mean±SD, n=6. (I) LBPA loading of purified mouse or human sEPCR evidenced by faster mobility on native gels. (J) Surface plasmon resonance analysis of aPL HLSB binding to purified human sEPCR or sEPCR-LBPA. The affinity calculation was based on a monovalent binding model because no cooperative binding was evident.
(A) TNFα mRNA induction after 2 hours by HLSB is prevented in Alix-deficient trophoblast cells; mean±SD, n=6. * p<0.0001; t-test following Shapiro-Wilk test for normal distribution. (B, C) Proximity ligation assays (PLA) for ASM and EPCR on scrambled control JARs or ALIX−/− cells after 10 minutes of stimulation with HLSB (B) or thrombin (C) with or without LBPA loading. Bar=25 μm. (D) aPL internalization in ALIX deficient JAR cells and signalling in EPCR^C/S monocytes (E) was restored by adding 10 μM LBPA (S,R) but not by other phospholipids. (F) Pregnancy loss was scored at day 15.5 p.c. after injection of aPL HLSB on days 8 and 12. * p<0.02; one-way ANOVA, Dunnett multiple-comparison test. […]

[1] = system: ALIX^−/− trophoblast cells; assay: aPL HL5B binding to ALIX-deficient trophoblast (JAR) cells after adding phospholipids; assay type: cell-based, human; settings: 10 μM lipid added
Description: (A) TNFα mRNA induction after 2 hours by HLSB is prevented in Alix-deficient trophoblast cells; mean±SD, n=6. * p<0.0001; t-test following Shapiro-Wilk test for normal distribution. (B, C) Proximity ligation assays (PLA) for ASM and EPCR on scrambled control JARs or ALIX−/− cells after 10 minutes of stimulation with HLSB (B) or thrombin (C) with or without LBPA loading. Bar=25 μm. (D) aPL internalization in ALIX deficient JAR cells and signalling in EPCR^C/S monocytes (E) was restored by adding 10 μM LBPA (S,R) but not by other phospholipids. (F) Pregnancy loss was scored at day 15.5 p.c. after injection of aPL HLSB on days 8 and 12. * p<0.02; one-way ANOVA, Dunnett multiple-comparison test. (G) Schematic representation of aPL signalling leading to thrombosis or pregnancy complications.
Human ALIX^−/− trophoblast cells and murine EPCR^C/S monocytes provided tools to compare the species conservation of lipid presentation by EPCR. Only addition of S/R 18:1 LBPA and R/R 18:1 LBPA, but not S/S 18:1 LBPA or semi-S/R LBPA restored aPL HL5B binding to ALIX^−/− trophoblast cells (FIG. 7D) or signaling in EPCR^C/S monocytes (FIG. 7E). Thus, human and mouse EPCR present LBPA with the same selectivity, providing an explanation for the remarkable species cross-reactivity of pathogenic aPL.

[2] = system: acidic sphingomyelinase (ASM); assay: ASM activity in unstimulated cell lysates after addition of sEPCR-LBPA; assay type: biochemical
Description: (A) aPL-mediated TF activation, PS exposure measured by annexin 5 staining, ROS production and TNFα induction as well as (B) aPL internalization in MM1 cells was blocked by sphingomyelinase inhibitor desipramine. Bar=5 μm. (C) aPL-induced ASM activity in MM1 cells is blocked by inhibitors of FXa, thrombin, and PAR1 cleavage. (D) Live cell imaging of surface ASM exposure in MM1 cells after 30 minutes of stimulation with Fab′2 aPL HLSB. Bar=5 μm. (E) ASM activity in unstimulated cell lysates after addition of sEPCR-LBPA (2.504) is blocked by αEPCR 1682. For all ASM activity assays: mean±SD, n=3. * p<0.0003; one-way ANOVA, Dunnett multiple-comparison test. […] (G, H) Thrombosis induction by dual reactive aPL HL7G in the indicated mouse strains or WT mice in presence of indicated αEPCR. (F-H) Quantification of thrombus size 3 hours after aPL injection; median, interquartile range, and range; n=6-11; * p <0.004; one-way ANOVA, Dunnett multiple-comparison test compared to αEPCR 1650. (I, J) Thrombosis induction by aPL HLSB (I) or IgG isolated from age-matched 16 weeks old lupus-prone MRL/lpr and MRL control mice (J) in the indicated mouse strains. Quantification of thrombus size 3 hours after aPL injection; median, interquartile range, and range; (I) n=6-10; * p=0.001; unpaired t-test. (J) n=5; * p=0.0025; two-way ANOVA, Sidak's multiple comparisons test.
ASM requires LBPA for activity (33). […]

`CNCCCN1c2ccccc2CCc2ccccc21` [desipramine] was tested, and the aPL internalization (MM1 cells) was “blocked” and the “aPL-mediated TF activation, PS exposure, ROS production and TNFα induction” value (MM1 cells) was “blocked”.

With interferon a the “expansion of anti-cardiolipin producing B cells” value (EPCR^C/S pDC) was “restored”.

S/R 18:1 LBPA was tested, and the “aPL signaling in EPCR^C/S monocytes after adding LBPA isomers” value (EPCR^C/S monocytes) was “restored” and the “aPL HL5B binding to ALIX^−/− trophoblast cells” value [1] was “restored”.

B1: EPCR-LBPA: purified soluble EPCR loaded with LBPA by lipid exchange (protein, UniProt Q9UNN8 18-210, looked up)
extracellular domain: SQDASDGLQRLHMLQISYFRDPYHVWYQGNASLGGHLTHVLEGPDTNTTIIQLQPLQEPESWARTQSGLQSYLLQFHGLVRLVHQERTLAFPLTIRCFLGCELPPEGSRAHVFFEVAVNGSSFVSFRPERALWQADTQVTSGVVTFTLQQLNAYNRTRYELREFLEDTCVQYVQKHISAENTKGSQTSRSYTS
modifications: extracellular domain loaded with LBPA lipid
notes: purified soluble EPCR loaded with LBPA by lipid exchange
B1 was tested, and the “induction of ASM activity in cell lysates of unstimulated cells” value [2] was “efficiently induced ASM activity”.
